Consider eleven compounds from patent publication US8003660B2, “Modulators of muscarinic receptors” (Vertex Pharmaceuticals Incorporated, priority 2006, dated 2011).

Broadly, the EC50 is the concentration that produces a half-maximal response.

Holding throughout (format): cell-based
Assay [1] concerns the target T1, M2 muscarinic receptor (Homo sapiens, UniProt P08172).
T1 construct: expressed in transfected cells; host or cells: CHO (M2-CHO)
T1 sequence (P08172 1-466): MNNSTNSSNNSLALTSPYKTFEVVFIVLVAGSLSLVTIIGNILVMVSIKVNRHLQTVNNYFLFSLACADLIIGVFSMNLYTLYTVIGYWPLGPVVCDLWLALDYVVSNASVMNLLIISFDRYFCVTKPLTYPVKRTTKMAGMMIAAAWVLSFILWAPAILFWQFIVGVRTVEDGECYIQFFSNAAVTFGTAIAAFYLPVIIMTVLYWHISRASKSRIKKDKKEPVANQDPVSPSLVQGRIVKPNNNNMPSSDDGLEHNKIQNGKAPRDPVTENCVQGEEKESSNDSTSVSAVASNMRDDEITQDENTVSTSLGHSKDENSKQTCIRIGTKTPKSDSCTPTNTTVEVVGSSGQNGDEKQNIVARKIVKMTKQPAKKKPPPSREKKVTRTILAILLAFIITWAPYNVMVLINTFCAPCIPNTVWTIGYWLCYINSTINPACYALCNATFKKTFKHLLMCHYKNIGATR
Briefly: Functional mobilization of intracellular calcium (FLIPR) in CHO cells expressing M2. The following applies: for EC50: CHO cells expressing M2, FLIPR calcium; for Emax: CHO, read-out: M2 Efficacy. The procedure: (§1) Functional Mobilization of Intracellular Calcium to Determine Muscarinic Receptor Activity:
(§2) CHO cells expressing muscarinic receptors (M1 to M5) are grown as monolayers in tissue culture flasks at 37° C. in a humidified atmosphere containing 5% CO2 and passaged every 3-5 days. The growth media is Dulbecco's modified eagles medium (DMEM, Gibco Cat# 12430-054), containing 25 mM Hepes and supplemented with Fetal Bovine Serum (Hyclone, cat# SH30071.03), 0.1 mM of MEM non-essential amino acids (GIBCO, Cat# 11140-050), 1 mM MEM Sodium Pyruvate (GIBCO Cat# 11360-070) and 100 units/ml of Penicillin G and 100 μg/ml of Streptomycin (GIBCO Cat# 15140-122). The recombinant muscarinic receptor cell lines are grown under antibiotic pressure with media containing 25 μg/ml zeocin and 500 μg/ml G418 (M1-CHO), 4 μg/ml puromycin, 50 μg/ml zeocin and 2.5 μg/ml blasticidin (M2 and M4-CHO) or 50 μg/ml zeocin and 4 μg/ml puromycin (M3 and M5-CHO).
(§3) Cells are harvested at 80-90% confluence using Versene (GIBCO Cat# 15040-066), collected by centrifugation and seeded 18-24 hrs prior to running the calcium assay at a density of 5,000-10,000 cells/well in […], clear-bottomed 384-well plates (BD Biocoat, poly-D-lysine, Cat#356663). The day of the experiment, the cells are washed with a plate washer (Bioteck Instruments, ELX 405) using bath 1 buffer (140 mM NaCl, 4,5 mM KCl, 2 mM CaCl2, 1 mM MgCl2, 10 mM Hepes-Na, 10 mM Glucose, pH 7.4, with NaOH) containing 1 mM Probenecid. Next, the calcium dye Fluo-3 (25 μl/well of Fluo-3 AM at 4 μM, Molecular Probes F-1241, in Bath 1 buffer containing 1 mM Probenecid) is added to the 25 μl of Bath 1 remaining in each well after the plate wash and the dye is loaded at 37° C. in the tissue culture incubator for 60-90 min. The fluorescent dye is removed using the plate washer with Bath 1 containing 1 mM Probenecid, leaving 25 μl/well of this solution after the wash. Alternatively, cells can be loaded with the calcium indicator from Molecular Devices (Calcium 3 Assay Reagents, Cat #R7181) adding 5 μl of a 5× solution dye in Bath 1 containing 1 mM Probenecid (10 ml per dye flask cat#R7182 to generate a solution […]) to 20 μl of the same buffer. After loading for 60 min, the experiment can be run without having to remove the dye.
(§4) Compounds are prepared at a 2× fold concentration in a 96-well plate (round bottom, Costar Corning cat#3656), by reconstituting the pre-spotted compounds in bath 1 containing 1 mM probenecid. The final concentration DMSO is 0.5%, and the amount of DMSO is normalized across the assay plate. To determine an agonist action of the compounds on muscarinic receptors, the reconstituted compounds are added (25 μl compound/well) to the cell assay plate (containing 25 μl/well) using the multi-channel robotic system of the FLIPR 3 Instrument (Molecular Devices, Sunnyvale, Calif.). To determine a functional inhibitory action of the compounds on muscarinic receptors, the reconstituted compounds are added (25 μl compound/well) to the assay plate and pre-incubated for 15 min prior to adding 25 μl of Carbachol at 3× the EC80 for each muscarinic subtype. Alternatively, the compounds can be co-applied simultaneously with the agonist. In both assay modes, the fluorescence is recorded for 60 sec (excitation wavelength is […] and emission wavelength 540 nm) using the FLIPR 3 instrument.
(§5) The potency, efficacy and selectivity of the muscarinic compounds were evaluated by screening the compound activity across the whole family (M1 to M5 cells). Compounds were also screened for activity on other proteins such as other GPCRs and ion channels to determine selectivity on M4 receptors.
(In general: Calcium assays in cells follow changes in intracellular calcium, usually with a dye or a luminescent sensor.)

For assay [2], the target named is T2, M4 muscarinic receptor (Homo sapiens, UniProt P08173).
T2 construct: expressed in transfected cells; host or cells: CHO (M4-CHO)
T2 sequence (P08173 1-479): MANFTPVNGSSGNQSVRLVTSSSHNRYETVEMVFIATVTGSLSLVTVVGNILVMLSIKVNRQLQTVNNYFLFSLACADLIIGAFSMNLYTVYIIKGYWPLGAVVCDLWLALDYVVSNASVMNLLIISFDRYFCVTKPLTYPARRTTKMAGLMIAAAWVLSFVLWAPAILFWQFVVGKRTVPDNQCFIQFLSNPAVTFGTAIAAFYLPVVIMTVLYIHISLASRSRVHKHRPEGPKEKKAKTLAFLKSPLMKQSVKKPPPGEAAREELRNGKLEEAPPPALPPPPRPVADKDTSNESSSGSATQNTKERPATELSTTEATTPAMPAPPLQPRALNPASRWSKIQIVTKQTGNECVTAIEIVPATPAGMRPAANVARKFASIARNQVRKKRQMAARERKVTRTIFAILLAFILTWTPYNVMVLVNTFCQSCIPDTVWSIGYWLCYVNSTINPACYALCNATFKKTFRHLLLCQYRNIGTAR
Briefly: Functional mobilization of intracellular calcium (FLIPR) in CHO cells expressing M4. The settings on record: for EC50: CHO cells expressing M4, FLIPR calcium; for Emax: CHO, read-out: M4 Efficacy. The procedure: as §1, §2, §3, §4, §5

Assay [3] concerns the target T3, M1 muscarinic receptor (Homo sapiens, UniProt P11229).
T3 construct: expressed in transfected cells; host or cells: CHO (M1-CHO)
T3 sequence (P11229 1-460): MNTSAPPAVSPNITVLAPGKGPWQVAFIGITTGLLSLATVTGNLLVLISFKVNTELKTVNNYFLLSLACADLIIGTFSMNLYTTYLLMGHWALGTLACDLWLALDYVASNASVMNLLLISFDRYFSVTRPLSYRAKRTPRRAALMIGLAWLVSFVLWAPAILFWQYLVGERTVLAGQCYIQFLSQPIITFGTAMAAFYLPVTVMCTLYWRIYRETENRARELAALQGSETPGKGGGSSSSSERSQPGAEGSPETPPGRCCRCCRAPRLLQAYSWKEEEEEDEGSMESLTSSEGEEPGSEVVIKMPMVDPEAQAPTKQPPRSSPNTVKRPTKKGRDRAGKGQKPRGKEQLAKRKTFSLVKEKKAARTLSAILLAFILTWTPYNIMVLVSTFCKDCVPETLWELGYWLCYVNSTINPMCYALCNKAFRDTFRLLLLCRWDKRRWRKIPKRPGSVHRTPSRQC
In words: Functional mobilization of intracellular calcium (FLIPR) in CHO cells expressing M1. The following applies: for EC50: CHO cells expressing M1, FLIPR calcium; for Emax: CHO, read-out: M1 Efficacy. The procedure: as §1, §2, §3, §4, §5

Assay [4] addresses T4, M3 muscarinic receptor (Homo sapiens, UniProt P20309).
T4 construct: expressed in transfected cells; host or cells: CHO (M3-CHO)
In words: Functional mobilization of intracellular calcium (FLIPR) in CHO cells expressing M3. The settings on record: for EC50: CHO cells expressing M3, FLIPR calcium; for Emax: CHO, read-out: M3 Efficacy. The procedure:
as §1, §2, §3, §4, §5

The mark [5] stands for this setting: 100% = maximum response obtained with the Carbachol control.

T4 sequence (P20309 whole entry): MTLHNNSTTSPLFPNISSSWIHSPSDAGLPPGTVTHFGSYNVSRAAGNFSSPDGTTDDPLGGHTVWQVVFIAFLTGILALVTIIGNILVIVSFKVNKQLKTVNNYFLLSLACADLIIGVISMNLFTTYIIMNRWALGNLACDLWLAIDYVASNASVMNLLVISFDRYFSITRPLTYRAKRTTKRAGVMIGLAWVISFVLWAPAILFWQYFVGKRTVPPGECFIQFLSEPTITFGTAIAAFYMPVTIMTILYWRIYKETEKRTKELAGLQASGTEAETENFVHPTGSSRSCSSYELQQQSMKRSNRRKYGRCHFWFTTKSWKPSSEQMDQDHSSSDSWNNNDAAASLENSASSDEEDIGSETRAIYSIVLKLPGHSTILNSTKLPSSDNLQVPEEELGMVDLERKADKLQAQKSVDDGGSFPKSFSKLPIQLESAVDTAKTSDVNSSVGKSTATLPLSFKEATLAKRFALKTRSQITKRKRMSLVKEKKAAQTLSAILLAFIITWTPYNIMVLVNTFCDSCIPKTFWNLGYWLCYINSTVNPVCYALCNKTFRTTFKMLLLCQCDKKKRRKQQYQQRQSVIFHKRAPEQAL

With `CC(C)(C)CCN1CCC2(CC[C@@H](N3CCCCC3=O)c3ccc(F)cc32)CC1` [compound 6], the EC50 in assay [1] is > 5 µM; in assay [2] it was < 2 µM; in assay [3] it was > 5 µM; in assay [4] it was > 5 µM. The Emax in assay [1] (setting [5]) was < 25%; in assay [2] (setting [5]), 25 to 100%; in assay [3] (setting [5]), < 25%; in assay [4] (setting [5]), < 25%.
On to `CCN(C(=O)CC1CCCC1=O)[C@H]1CCC2(CCN(CCC(C)(C)C)CC2)c2ccccc21` (stereo partly shown) [compound 7], for which the EC50 in assay [1] is > 5 µM; in assay [2], < 2 µM; in assay [3], 2 to 5 µM; in assay [4], > 5 µM. For the same compound, the Emax in assay [1] (setting [5]) was < 25%; in assay [2] (setting [5]) it was 25 to 100%; in assay [3] (setting [5]), 25 to 100%; in assay [4] (setting [5]), < 25%.
Consider `CC(=O)NCCC(=O)N[C@@H]1CCC2(CCN(CCC(C)(C)C)CC2)c2ccccc21` [compound 8], for which the EC50 in assay [1] is 2 to 5 µM; in assay [2] it was < 2 µM; in assay [3], < 2 µM; in assay [4], > 5 µM. In addition, the Emax was < 25% in assay [1] (setting [5]), 25 to 100% in assay [2] (setting [5]), 25 to 100% in assay [3] (setting [5]) and < 25% in assay [4] (setting [5]).
Consider `CCN(C(=O)C1CCOC1)[C@H]1CCC2(CCN(CCC(C)(C)C)CC2)c2ccccc21` (stereo partly shown) [compound 9], for which the EC50 in assay [1] was > 5 µM; in assay [2], < 2 µM; in assay [3], > 5 µM; in assay [4], > 5 µM. Also, the Emax was < 25% in assay [1] (setting [5]), 25 to 100% in assay [2] (setting [5]), 25 to 100% in assay [3] (setting [5]) and < 25% in assay [4] (setting [5]).
Take `CCN(C(=O)c1cscn1)[C@H]1CCC2(CCN(CCC(C)(C)C)CC2)c2ccccc21` [compound 10]: the concentration for a half-maximal effect (EC50) is > 5 µM in assay [1], < 2 µM in assay [2], > 5 µM in assay [3] and > 5 µM in assay [4]. Further, the Emax was < 25% in assay [1] (setting [5]), 25 to 100% in assay [2] (setting [5]), < 25% in assay [3] (setting [5]) and < 25% in assay [4] (setting [5]).
As for `CCC(=O)N[C@@H]1CCC2(CCN(CCC(C)(C)C)CC2)c2cc(F)ccc21` [compound 11], the EC50 in assay [1] is > 5 µM; in assay [2], < 2 µM; in assay [3], < 2 µM; in assay [4], > 5 µM. For the same compound, the Emax in assay [1] (setting [5]) was < 25%; in assay [2] (setting [5]), 25 to 100%; in assay [3] (setting [5]), 25 to 100%; in assay [4] (setting [5]), < 25%.
Regarding `CCOC(=O)N[C@H]1CCC2(CCN(CCC(C)(C)C)CC2)c2ccccc21` [compound 12], the EC50 was < 2 µM in assay [1], < 2 µM in assay [2], < 2 µM in assay [3] and > 5 µM in assay [4]. Moreover, the Emax in assay [1] (setting [5]) is 25 to 100%; in assay [2] (setting [5]), 25 to 100%; in assay [3] (setting [5]) it was 25 to 100%; in assay [4] (setting [5]), < 25%.
For the compound `CCC(=O)N1CCCC(C(=O)N[C@@H]2CCC3(CCN(CCC(C)(C)C)CC3)c3ccccc32)C1` (stereo partly shown) [compound 13], the half-maximal effective concentration (EC50) in assay [1] is > 5 µM; in assay [2], < 2 µM; in assay [3], > 5 µM; in assay [4] it was > 5 µM. For the same compound, the Emax in assay [1] (setting [5]) is < 25%; in assay [2] (setting [5]) it was 25 to 100%; in assay [3] (setting [5]), < 25%; in assay [4] (setting [5]) it was < 25%.
`CC(=O)N[C@H](C)C(=O)N[C@@H]1CCC2(CCN(CCC(C)(C)C)CC2)c2ccccc21` [compound 14]: the “M2 Efficacy” value in assay [1] (setting [5]) is reported as “+ (efficacy was calculated to be less than 25%)”. In addition, the EC50 was 2 to 5 µM in assay [1], < 2 µM in assay [2], > 5 µM in assay [3] and > 5 µM in assay [4]. In assay [2] (setting [5]), the “M4 Efficacy” value is recorded as “++ (efficacy was calculated to be from 100% to 25%)”. The “M1 Efficacy” value in assay [3] (setting [5]) is “++ (efficacy was calculated to be from 100% to 25%)”. The “M3 Efficacy” value in assay [4] (setting [5]) is given as “+ (efficacy was calculated to be less than 25%)”.
`CCN(C(=O)C1CCCN1C(C)=O)[C@H]1CCC2(CCN(CCC(C)(C)C)CC2)c2ccccc21` (stereo partly shown) [compound 15]: the EC50 is > 5 µM in assay [1], < 2 µM in assay [2], < 2 µM in assay [3] and > 5 µM in assay [4]. Besides, the Emax in assay [1] (setting [5]) was < 25%; in assay [2] (setting [5]) it was 25 to 100%; in assay [3] (setting [5]), 25 to 100%; in assay [4] (setting [5]), < 25%.
Regarding `COC(=O)CCCN1CCC2(CC[C@H](NC(C)=O)c3ccccc32)CC1` [compound 16], the EC50 was > 5 µM in assay [1], > 5 µM in assay [2], 2 to 5 µM in assay [3] and > 5 µM in assay [4]. Moreover, the Emax in assay [1] (setting [5]) was < 25%; in assay [2] (setting [5]), 25 to 100%; in assay [3] (setting [5]), 25 to 100%; in assay [4] (setting [5]) it was < 25%.
